Test results taken from patent US8785453B2, “Arylpiperazine-containing purine derivatives and uses thereof” (Green Cross Corporation, priority 2009, dated 2014).
Counter-ions that a name gives are not always drawn. Like-named read-outs stand apart in the source and are kept apart here. Marks after values point to notes of the source that are not given here.

Legend:
[1] = target: T1, human recombinant serotonin 5-HT2A receptor (Homo sapiens, UniProt P28223); experiment: Binding affinity for serotonin 5-HT2A receptor ([3H]Ketanserin)
T1 construct: purchased PerkinElmer Life and Analytical Sciences, USA; host or cells: CHO-K1 cells
T1 sequence (P28223 whole entry): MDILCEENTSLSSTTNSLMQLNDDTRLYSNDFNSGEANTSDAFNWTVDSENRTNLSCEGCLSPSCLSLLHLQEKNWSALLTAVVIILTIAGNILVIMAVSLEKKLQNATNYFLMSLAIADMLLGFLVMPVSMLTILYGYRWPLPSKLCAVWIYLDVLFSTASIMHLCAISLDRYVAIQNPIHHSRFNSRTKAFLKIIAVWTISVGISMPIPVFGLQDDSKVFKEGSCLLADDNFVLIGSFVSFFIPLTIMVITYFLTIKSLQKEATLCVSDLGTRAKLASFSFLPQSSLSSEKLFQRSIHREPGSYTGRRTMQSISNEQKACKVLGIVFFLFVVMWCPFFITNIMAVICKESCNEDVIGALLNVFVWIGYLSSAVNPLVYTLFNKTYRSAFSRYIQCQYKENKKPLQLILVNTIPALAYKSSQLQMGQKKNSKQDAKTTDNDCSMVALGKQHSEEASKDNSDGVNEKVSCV
Method: (§1) Receptor binding affinities of the compounds for serotonin receptors were measured by the method described in the literature (see [Park W K et al., Pharmacol Biochem Behav., 82(2), 361-372 (2005)].
For serotonin 5-HT2A binding, an aliquot of human recombinant serotonin 5-HT2A receptor (PerkinElmer Life and Analytical Sciences, USA) expressed in CHO-K1 cells (5 μg/well) and 1 nM [^3H]Ketanserin (PerkinElmer) were used in the presence of mianserin (20 μM) as a nonspecific. The reaction mixture was incubated for 60 min […] 50 mM Tris-HCl (pH 7.4) buffer containing 4 mM CaCl2 and 0.1% ascorbic acid, and harvested through filtermate A glass fiber filter (Wallac, Finland) presoaked in 0.5% polyethyleneimine (PEI) by microbeta filtermate-96 harvester (PerkinElmer) to terminate the reaction, and then washed with ice cold 50 mM Tris-HCl buffer solution (pH 7.4). The filter was then covered with MeltiLex, sealed in a sample bag, dried in an oven. The radioactivity retained in the filter was finally counted using MicroBeta Plus (Wallac).
(§2) The binding affinity (IC50) of a compound for the receptor was calculated by computerized nonlinear regression analysis (GraphPad Prism Program, San Diego, USA) using 7-8 varied concentrations of the compound run in duplicate tubes.

[2] = target: T2, human recombinant 5-HT2C receptor (Homo sapiens, UniProt P28335); experiment: Binding affinity for serotonin 5-HT2C receptor ([3H]Mesulergine)
T2 construct: purchased PerkinElmer
T2 sequence (P28335 33-458): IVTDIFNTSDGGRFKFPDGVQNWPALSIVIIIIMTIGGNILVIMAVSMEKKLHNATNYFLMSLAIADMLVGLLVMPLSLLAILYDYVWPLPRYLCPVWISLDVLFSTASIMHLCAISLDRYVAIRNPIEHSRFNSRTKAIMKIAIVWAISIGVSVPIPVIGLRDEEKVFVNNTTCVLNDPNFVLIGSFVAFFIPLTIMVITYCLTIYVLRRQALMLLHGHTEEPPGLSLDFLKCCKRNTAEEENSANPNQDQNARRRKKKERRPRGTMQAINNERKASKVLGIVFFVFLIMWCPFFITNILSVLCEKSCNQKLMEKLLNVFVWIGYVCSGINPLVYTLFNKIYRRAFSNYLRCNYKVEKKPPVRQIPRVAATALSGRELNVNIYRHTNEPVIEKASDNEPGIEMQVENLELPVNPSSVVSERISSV
Method: as §1, §2
For serotonin 5-HT2C binding, frozen membranes from stable CHO-K1 cell line expressing the human recombinant 5-HT2C receptor (PerkinElmer, 4 μg/well), [^3H]Mesulergine (Amersham, 1.3 nM) and test compounds were added into 50 mM Tris-HCl (pH 7.4) buffer containing 0.1% ascorbic acid and 4 mM CaCl2. Nonspecific binding was determined using 100 μM mianserin. The incubations were performed for 60 min at 27, and these were terminated by rapid filtration through filtermate A glass fiber filter presoaked in 0.5% PEI.

[3] = target: T3, human serotonin transporter (Homo sapiens, UniProt P31645); experiment: Binding affinity for serotonin transporter ([3H]Imipramine)
T3 construct: purchased PerkinElmer; host or cells: HEK-293 cells
T3 sequence (P31645 whole entry): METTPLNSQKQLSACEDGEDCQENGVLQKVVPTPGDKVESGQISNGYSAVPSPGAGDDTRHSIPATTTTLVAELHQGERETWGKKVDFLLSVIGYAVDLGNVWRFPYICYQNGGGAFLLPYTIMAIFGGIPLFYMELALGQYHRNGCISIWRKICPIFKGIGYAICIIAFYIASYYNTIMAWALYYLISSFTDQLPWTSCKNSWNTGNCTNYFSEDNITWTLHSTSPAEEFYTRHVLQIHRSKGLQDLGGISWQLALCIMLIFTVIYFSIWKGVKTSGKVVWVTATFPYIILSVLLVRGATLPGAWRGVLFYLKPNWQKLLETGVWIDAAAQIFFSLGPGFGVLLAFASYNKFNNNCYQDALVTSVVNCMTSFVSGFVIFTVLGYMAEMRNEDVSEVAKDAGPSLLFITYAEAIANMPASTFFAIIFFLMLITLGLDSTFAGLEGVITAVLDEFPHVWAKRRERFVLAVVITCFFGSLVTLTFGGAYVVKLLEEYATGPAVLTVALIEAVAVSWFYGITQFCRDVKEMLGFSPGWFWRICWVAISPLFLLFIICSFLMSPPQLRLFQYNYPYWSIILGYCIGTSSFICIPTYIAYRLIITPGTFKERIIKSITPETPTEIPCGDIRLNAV
Method: For serotonin transporter binding assays, a reaction mixture with a final volume of 0.25 ml was prepared by mixing a test compound, human serotonin transporter membrane expressed in HEK-293 cells (PerkinElmer, 5 μg/well), [^3H] Imipramine (PerkinElmer, 2 nM) and 50 mM Tris-HCl (pH 7.4) buffer containing 120 mM NaCl and 5 mM KCl. The reaction mixture was incubated for 30 min at 27, and harvested through filtermate A glass fiber filter presoaked in 0.5% PEI with ice cold 50 mM Tris-HCl buffer (pH 7.4) containing 0.9% NaCl.

mice = experiment: Anti-depressants activity in forced swimming test; format: in vivo; settings: 60 min before testing
Method: Each mouse was placed in a 25 cm glass cylinder (10 cm diameter) containing 15 cm of water maintained at 22±1, and was forced to swim for 10 min. 24 hours later, the mouse was replaced into the cylinder and the total duration of immobility was recorded during the last 5 min of the 6-min testing period. Mice are judged immobile when they float in an upright position and make only small movements to keep their head above water. Test drugs were suspended in 3% Tween 80 solution, and administered orally (po) 60 min before the testing.

[4] = CHO-K1 cells, 1 nM [3H]Ketanserin, read-out: binding affinity (IC50) 5-HT2A
[5] = CHO-K1 membranes, 1.3 nM [3H]Mesulergine, read-out: binding affinity (IC50) 5-HT2C
[6] = HEK-293 membrane, 2 nM [3H]Imipramine, read-out: binding affinity Serotonin Transporter

Compound: Clc1cccc(N2CCN(CCCNc3ncnc4c3nc(-c3ccccc3)n4-c3ccccc3)CC2)c1Cl [Example 1, N-(3-(4-(2,3-dichlorophenyl)piperazin-1-yl)propyl)-8,9-diphenyl-9H-purine-6-amine]
- IC50 [1]: 14 nM
- IC50 [2]: 86 nM
- IC50 [3]: 64 nM
- Immobility in forced swimming test (mice; 50 mg/kg po): 41.79%

Compound: Cc1cccc(N2CCN(CCCNc3ncnc4c3nc(-c3ccccc3)n4-c3ccccc3)CC2)c1C [Example 2, N-(3-(4-(2,3-dimethylphenyl)piperazin-1-yl)propyl)-8,9-diphenyl-9H-purine-6-amine]
- IC50 [1, 4]: 32 nM
- IC50 [2, 5]: 163 nM
- IC50 [3, 6]: 75 nM
- Immobility in forced swimming test (mice; 25 mg/kg po): 58.34 ± 11.05%
- Immobility in forced swimming test (mice; 50 mg/kg po): 47.13 ± 10.41%

Compound: CCc1nc2c(NCCN3CCN(c4cccc(C)c4C)CC3)ncnc2n1-c1ccccc1 [Example 10, N-(2-(4-(2,3-dimethylphenyl)piperazin-1-yl)ethyl)-8-ethyl-9-phenyl-9H-purine-6-amine]
- IC50 [1, 4]: 11 nM
- IC50 [2, 5]: 106 nM
- IC50 [3, 6]: 161 nM
- Immobility in forced swimming test (mice; 25 mg/kg po): 74.56 ± 14.08%
- Immobility in forced swimming test (mice; 50 mg/kg po): 80.58 ± 11.21%

Compound: CCCc1nc2c(NCCN3CCN(c4cccc(C)c4C)CC3)ncnc2n1-c1ccccc1 [Example 12, N-(2-(4-(2,3-dimethylphenyl)piperazin-1-yl)ethyl)-9-phenyl-8-propyl-9H-purine-6-amine]
- IC50 [1, 4]: 13 nM
- IC50 [2, 5]: 147 nM
- IC50 [3, 6]: 93 nM
- Immobility in forced swimming test (mice; 25 mg/kg po): 94.69 ± 12.46%

Compound: Cc1cccc(N2CCN(CCCNc3ncnc4c3ncn4-c3ccccc3)CC2)c1C [Example 13, N-(3-(4-(2,3-dimethylphenyl)piperazin-1-yl)propyl)-9-phenyl-9H-purine-6-amine]
- IC50 [1, 4]: 56 nM
- IC50 [2, 5]: 294 nM
- IC50 [3, 6]: 35 nM
- Immobility in forced swimming test (mice; 25 mg/kg po): 89.81 ± 7.14%

Compound: Cc1cccc(N2CCN(CCNc3ncnc4c3nc(-c3ccccc3)n4-c3ccccc3)CC2)c1C [Example 18, N-(2-(4-(2,3-dimethylphenyl)piperazin-1-yl)ethyl)-8,9-diphenyl-9H-purine-6-amine]
- IC50 [1, 4]: 28 nM
- IC50 [2, 5]: 216 nM
- IC50 [3, 6]: 575 nM
- Immobility in forced swimming test (mice; 25 mg/kg po): 89.98 ± 11.45%

Compound: Cc1cccc(N2CCN(CCCNc3ncnc4c3nc(-c3ccccc3)n4C)CC2)c1C [Example 23, N-(3-(4-(2,3-dimethylphenyl)piperazin-1-yl)propyl)-9-methyl-8-phenyl-9H-purine-6-amine]
- IC50 [1, 4]: 36 nM
- IC50 [2, 5]: 76 nM
- IC50 [3, 6]: 106 nM
- Immobility in forced swimming test (mice; 25 mg/kg po): 99.59 ± 6.34%

Compound: Cc1cccc(N2CCN(CCCNc3ncnc4c3nc(C)n4C)CC2)c1C [Example 28, N-(3-(4-(2,3-dimethylphenyl)piperazin-1-yl)propyl)-8,9-dimethyl-9H-purine-6-amine]
- IC50 [1, 4]: 65 nM
- IC50 [2, 5]: 430 nM
- IC50 [3, 6]: 85 nM
- Immobility in forced swimming test (mice; 25 mg/kg po): 87.65 ± 7.08%

Compound: Cc1c(Cl)cccc1N1CCN(CCCNc2ncnc3c2nc(-c2ccccc2)n3-c2ccccc2)CC1 [Example 67, N-(3-(4-(3-chloro-2-methylphenyl)piperazin-1-yl)propyl)-8,9-diphenyl-9H-purine-6-amine]
- IC50 [1, 4]: 42 nM
- IC50 [2, 5]: 247 nM
- IC50 [3, 6]: 96 nM

Compound: Cc1cccc(N2CCN(CCCNc3ncnc4c3nc(-c3ccccc3)n4-c3ccc(F)cc3)CC2)c1C [Example 79, N-(3-(4-(2,3-dimethylphenyl)piperazin-1-yl)propyl)-9-(4-fluorophenyl)-8-phenyl-9H-purine-6-amine]
- IC50 [1, 4]: 43 nM
- IC50 [2, 5]: 303 nM
- IC50 [3, 6]: 67 nM

Compound: CSc1ccc(-n2c(C)nc3c(NCCN4CCN(c5cccc(C)c5C)CC4)ncnc32)cc1 [Example 85, N-(2-(4-(2,3-dimethylphenyl)piperazin-1-yl)ethyl)-8-methyl-9-(4-(methylthio)phenyl)-9H-purine-6-amine hydrochloride]
- IC50 [1, 4]: 9.6 nM
- IC50 [2, 5]: 70 nM
- IC50 [3, 6]: 362 nM

Compound: CNCCC(Oc1ccc(C(F)(F)F)cc1)c1ccccc1 (stereo not drawn) [Fluoxetine, reference compound]
- Immobility in forced swimming test (mice; 50 mg/kg po): 70.4^b %
- Immobility in forced swimming test (mice; 100 mg/kg po): 59.5^b %
